# Data published in EP0108147B1, “Use of a protoberberine alkaloid and composition containing same” (MAROKO, Peter R., priority 1982, dated 1983).
# Where two headings read alike, the source gives them in different places.
# Columns and labels:
# in vivo = experiment: in vivo; set-up: species or system rats; settings: rat
# Protocol: Preferential concentration of berberine in the heart rather than in other thoracic organs or the liver is a sine qua non for a good imaging agent. Berberine level measurements were done spectrophotometrically. The experiment consisted of injecting 3.5 mg/Kg of berberine ([…]) intravenously and killing the rats after 15 minutes, 90 minutes, 6 hours, 24 hours, 48 hours and 1 week. Each group consisted of 5-6 rats. A control group (no berberine administration) was used to determine the absorbance of the different organs at that wave length. […] It was released rapidly from the heart thus showing no significant tendency to accumulate in that organ. Its concentrate was 1, 1 and 3 pg/g in the lungs and 0.2 and 0 in the skeletal muscles or in the blood at the same time intervals.
# dogs = experiment: Myocardial oxygen consumption (MV02) and epicardial ST segment elevation experiments; type: in vivo
# Excerpt: These changes were due to lower. myocardial oxygen consumption during the occlusion with berberine treatment. […] This is quite an advanageous therapeutic combination of properties which further distinguish the compounds used in the invention from the conventional drugs.
# [1] = tested on: closed-chest anesthetized dogs; settings: for rise of diastolic pressure: only digitalis
# Protocol: A study was carried out to examine the effects of the simultaneous administration of berberine on digitalis (i.e. ouabain) produced arrhythmias.
# The experiments were conducted in closed-chest anesthetized dogs which were randomized to three groups. All received ouabain 0.03 mg/Kg as a bolus intravenously and thereafter a continuous infusion with a constant rate of 0.0006 mg/Kg/min until death. […] The second group received simultaneously berberine 1 mg/Kg intravenously as a bolus and then 0.2 mg/Kg/min as a continous infusion. The third group received berberine only after the appearance of VEA in a frequency of 50% of more of all systoles.
# Moreover, the effects of intravenous bolus injection of berberine (0.4 to 1 mg/Kg) was studied (in comparison to dextrose 5% injection).
# [2] = tested on: anesthetized closed chest dogs; experiment: Association of ouabain and berberine on contractility (LV dP/dt), constant systolic pressure; type: in vivo; settings: ouabain 0.03 mg/Kg i.v. bolus
# Protocol: In anesthetized closed chest dogs the systolic arterial pressure was maintained constant with a reservoir full of heparinized blood (as in protocol "M" and "Z" described above) and a "pigtail" and Millar catheter were introduced into the left ventricular cavity (as in protocol "Z" and "HV", described above). All data was recorded on 8 channel polygraph (Gould Instruments) with a paper speed of 200 mm/s when necessary and at 2 mm/s constantly.
# [3] = tested on: healthy adult mongrel dogs; experiment: Protocol M: hemodynamics in anesthetized open-chest dogs, systolic arterial pressure held constant; type: in vivo
# Mongrel dogs [4] = experiment: Protocol HV: acute left ventricular failure by coronary microsphere embolization, closed chest; type: in vivo; settings: ouabain 0.03 mg/kg during 30 minutes
# Protocol: - Experiments were carried out in 21 mongrel dogs of either sex with body weight between 19 and 39 kg. Anesthesia was induced with sodium pentobarbital, 25 mg/kg of body weight intravenously, and small supplementary doses were given as necessary to maintain a constant level of anesthesia. The dogs were placed in the left lateral position and ventilation was maintained through a cuffed endotracheal tube with a volume-controlled respirator (Harvard Apparatus Co., Millis, Massachusetts). Polyethylene cannuleae were placed into the jugular and femoral veins for intravenous infusions and drug adminstration. Electrocardiograms (lead aVF) were monitored continuously throughout the experiments.
# A polyethylene cannula was introduced into the aorta through the left carotid artery to record arterial pressure. (Stantham P23 ID transducer, Stantham Instruments, Inc. Oxnard, California). A Millar microtip transducer catheter (Millar Instruments, Inc., Houston, Texas) was introduced into the left ventricular cavity through the femoral artery to measure left ventricular pressures. For adjustment of zero level, left ventricular pressure was also measured through the fluid-filled lumen in the Millar catheter (Statham P23 ID transducer). The maximal rate of rise of left ventricular pressure, LV dP/dt, was recorded by means of a differentiator. All these parameters were recorded continuously on a polygraph (Gould 2800, Gould Instruments, Cleveland, Ohio). Cardiac output was determined by the thermodilution technique, using a thermistor catheter in the pulmonary artery and calculated by a cardiac output computer (Elecath, Electro- catheter Corp., Rahway, New Jersey). The coefficient of variation for duplicate CO measurements was 5%. In addition to the parameters directly obtained, total peripheral vascular resistance was calculated from the ratio of […] and cardiac output. Stroke volume was calculated by dividing cardiac output by heart rate. Heparin (Invendex) (5000 IU) was administered to avoid clotting of the catheters.
# To induce acute left vetricular failure, initially the left main coronary artery was catheterized with a Judkin coronary artery catheter (7F, ISCI Cardiology and Radiology Products, Billerica, Massachusetts) under fluoroscopic control. It was introduced through a femoral artery, and polystyrene microspheres (3M Company, St. Paul, Minnesota) with a diameter of 52. 5 ± 4.0 µm (mean±SD) were injected into the coronary artery. The microspheres were used in a concentration of 1 mg (i.e., 12,000) per ml saline. The first dose of microsphere solution was 0.5 mi/kg body weight, and all subsequent doses were 0.25 ml/kg body weight, administered every 5 minutes. Administration of microspheres was discontinued when LV/dP/dt had been reduced by 30% or more when measured 4 minutes after the last dose. All dogs received prophylactic antiarrhythmic treatment with intravenous lidocaine, 1.5 mg/kg body weight as a bolus 20 min after the end of embolization, followed by a continuous infusion of […].
# Forty-five minutes were allowed to elapse to verify the stability of the preparation. If Lv dP/dt or left ventricular end diastolic pressure had changed by 20% or more between 30 and 45 minutes after embolization, the dogs were excluded from this study and not randomized. Forty-five minutes after the end of embolization, the dogs were assigned randomly to three groups: a) Berberine-treated group, 0.2 mg/kg/ min, dissolved in 60 ml of a solution of 5% dextrose in water administered in a constant infusion during 30 minutes; b) ouabain-treated group, 0.03 mg/kg was administered in 60 ml of a 5% solution of dextrose in water during 30 minutes; and c) Control group, administration of 60 ml of a 5% solution of dextrose in water during 30 min. […]
# Mongrel dogs [5] = experiment: Protocol Z: continuous 35 minute infusion in anesthetized open-chest dogs, constant left ventricular pressure; type: in vivo
# Protocol: Mongrel dogs weighing between 15 and 25 kg were anesthetized with intravenous sodium thiamylal (20 mg/kg initially with additional doses given as needed). The dogs were intubated endotracheally, and respiration was maintained by a Harvard respirator. The chest was then opened in the fourth left intercostal space and the heart suspended temporarily in a pericardial cradle.
# Aortic pressures were recorded through a polyethylene cannula introduced through the carotid artery (Statham P23 Db pressure transducer) and electrocardiogram (lead aVF) were recorded throughout the experiment on a polygraph (Gould Instruments). Another polyethylene cannula was placed in the left atrium for measurement of atrial pressure (Statham P23 Db pressure transducer). An electromagnetic flowmeter (Biotonix Laboratories) was placed around the ascending aorta and the aortic flow was recorded on a polygraph. Two catheters were inserted into the left ventricle through a femoral artery.
# The first ("pigtail") served as a reference, while the second (Millar microtip transducer catheter) was connected through a Millar transducer (Millar Instruments, Houston, Texas) to the polygraph, where both left ventricular pressure curves were recorded simultaneously. The left ventricular end diastolic pressure was recorded separately through a Millar catheter. The first derivative of the left ventricular pressure (dP/dt) was obtained by electronic differentiation of the left ventricular pulse recorded through the Millar catheter.
# A reservoir of blood was connected with the femoral artery in order to maintain constant left ventricular pressure during the experiment. In this protocol, similarly to protocol M, systemic arterial pressure was maintained constant in order to have accurate measurements of dP/dt which represent well left ventricular contractility when the systolic pressure is maintained constant. However, calculated total peripheral resistance will be higher (an underestimation of the fall). After stabilization of hemodynamics as reflected by continuously monitored parameters for 15 minutes, the substances to be studied were infused intravenously using a Harvard infusion pump. Registrations were made every 5 minutes at a paper speed of 200 mm/second, while all the parameters were recorded constantly at a speed of 2 mm/second. The dogs were randomly assigned to several groups: • Group a) Control - in these dogs a solution of 5% dextrose in water was infused in the same quantity as in the berberine treated animals (n = 7).
# In all berberine, berberrubine coreximine and tetrahydropalmatine groiups the compounds were infused at constant rate for 35 minutes and the data analyzed at 5 minute intervals. • Group b) Berberine 0.7 mg/Kg/min (n = 10). • Group c) Berberine 0.2 mg/Kg/min (n = 7). • Group d) Berberine 0.02 mg/Kg/min (n = 7). • Group e) Berberrubine 0.2 mg/Kg/min (n = 7). • Group f) Tetrahydropalmatine 0.2 mg/Kg/min (n = 4). • Group g) Coreximine 0.2 mg/Kg/min (n = 8).
# Therefore, group b, c and d were used to analyze the various effects of continuous infusion of berberine and its dose response and groups e and f and g used to examine the effects of these three other proberberines. Moreover, their effects were compared to the berberine treated dogs with the same dose (i.e. Group c).
# dog = experiment: Protocol M simile: high or repetitive infusions in single dogs; type: in vivo
# Protocol: It is noted that the dP/dt increased by 350% after the eighth dose and dF/dt by 450%.
# In one dog using protocol M simile, 240 mg/Kg of berberine HCI was administered and dP/dt increased by 75%, aortic flow by 67%, heart rate fell from 150 to 114 beats/min., diastolic aortic pressure fell from 92 to 67 mmHg, and left atrial pressure fell from 8.5 to 7.5 mmHg.
# When this type of experiment was repeated with tetrahydropalmatine, a first dose of 3.5 mg/Kg was given without maintaining the pressure constant and arterial pressure fell from 142/115 to 118/90 mmHg. When the second infusion was given with constant pressure, dP/dt increased by 17%.
compound,measurement,setting,value
"COc1ccc2cc3[n+](cc2c1OC)CCc1cc2c(cc1-3)OCO2 [berberine (S04), berberine]",concentrate in the liver,in vivo; 15 min,0 1l9/g
same,concentrate in the liver,in vivo; 90 min,6 1l9/g
same,concentrate in the liver,in vivo; 6 h,2 1l9/g
same,concentration at 15 min,in vivo; concentrate in the lungs,0.001 ng/g
same,concentration at 90 min,in vivo; concentrate in the lungs,0.001 ng/g
same,concentration at 6 h,in vivo; concentrate in the lungs,0.003 ng/g
"CC(C)NCC(O)c1ccc(O)c(O)c1 (centres unmarked) [isoproterenol, reference compound]",epicardial ST segment elevations,dogs; after coronary artery occlusion,increased
same,mycardial oxygen consumption (MV02),"dogs; non-failing heart, dose that increases LV dP/dt similarly",significantly augmented
"C[C@@H]1O[C@@H](O[C@H]2C[C@@H](O)[C@]3(CO)[C@H]4[C@H](O)C[C@]5(C)[C@@H](C6=CC(=O)OC6)CC[C@]5(O)[C@@H]4CC[C@]3(O)C2)[C@H](O)[C@H](O)[C@H]1O [ouabain, reference compound]",dose of ouabain to provoke VT,"[1]; control situation, ouabain alone",0.04 mg/kg
same,amount of ouabain that provoked VT,"[1]; controls, ouabain alone",0.048 mg/kg
same,"increase in dP/dt, of the initial value of peak LV dP/dt",[2]; 5 minutes,17±2%
same,"increase in dP/dt, of the initial value of peak LV dP/dt",[2]; 10 minutes,24±3%
same,"increase in dP/dt, of the initial value of peak LV dP/dt",[2]; 15 minutes,34±4%
same,"increase in dP/dt, of the initial value of peak LV dP/dt",[2]; 20 minutes,36±4%
same,"increase in dP/dt, of the initial value of peak LV dP/dt",[2]; 25 minutes,44±6%
same,"increase in dP/dt, of the initial value of peak LV dP/dt",[2]; 30 minutes,49±7%
same,flow in the descending aorta,"[3]; after ouabain 0.03 mg/Kg i.v. bolus, from 1195 ± 89",1018 ± 93 mL/min
same,diastolic aortic pressure,[3]; ouabain 0.03 mg/Kg i.v. bolus,did not change significantly
same,increase of calculated peripheral resistance,[3]; ouabain 0.03 mg/Kg i.v. bolus,18%
same,decrease of flow in the descending aorta,"[3]; ouabain 0.03 mg/Kg i.v. bolus, 11 dogs, after the 90 minute experiments",15%
same,hemodynamic parameters from before to 30 minutes after the start of drug administration,Mongrel dogs [4],did not change any of the hemodynamic parameters
COc1cc2c(cc1OC)[C@@H]1Cc3ccc(OC)c(OC)c3CN1CC2 [tetrahydropalmatine],reduction of calculated peripheral resistance,Mongrel dogs [5]; 0.2 mg/Kg/min,over 30%
same,fall of heart rate (HR),Mongrel dogs [5]; 0.2 mg/Kg/min (Table XIII),5.5%
same,arterial pressure,"dog; first dose 3.5 mg/Kg, pressure not held constant, from 142/115",118/90
same,increase of dP/dt,"dog; second infusion, constant pressure",17%
digitalis [reference compound],rise of diastolic pressure,[1]; 10 minutes,31±9%
same,rise of diastolic pressure,[1]; 20 minutes,16±11%
same,rise of diastolic pressure,[1]; 30 minutes,34±15%
same,rise of diastolic pressure,[1]; 60 minutes,16±7%
